{"source": "ChEMBL document CHEMBL1201862", "about": "“PubChem BioAssay data set” (2004)", "key": {"[1]": {"target": "Protein disulfide-isomerase (Homo sapiens, UniProt P07237)", "sequence (P07237 whole entry)": "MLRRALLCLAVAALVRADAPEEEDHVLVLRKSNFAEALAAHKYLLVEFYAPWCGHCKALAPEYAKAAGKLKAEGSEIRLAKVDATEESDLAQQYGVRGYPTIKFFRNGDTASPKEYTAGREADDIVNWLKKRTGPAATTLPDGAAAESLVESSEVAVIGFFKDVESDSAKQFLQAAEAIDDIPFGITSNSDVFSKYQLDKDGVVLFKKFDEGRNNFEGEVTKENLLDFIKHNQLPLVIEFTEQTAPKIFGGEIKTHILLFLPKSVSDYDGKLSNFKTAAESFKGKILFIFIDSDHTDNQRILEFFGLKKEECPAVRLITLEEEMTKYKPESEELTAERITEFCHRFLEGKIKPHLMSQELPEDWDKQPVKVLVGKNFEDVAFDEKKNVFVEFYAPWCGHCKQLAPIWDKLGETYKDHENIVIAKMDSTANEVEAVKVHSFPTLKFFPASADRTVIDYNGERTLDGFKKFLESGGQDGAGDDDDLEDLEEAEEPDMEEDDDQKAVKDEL", "assay": "PDI inhibitors, insulin aggregation turbidity, dose response, biochemical, absorbance, cherry-picked samples (AID 602350)", "format": "functional"}, "Aurora kinase A": {"target": "Aurora kinase A (Homo sapiens, UniProt O14965)", "sequence (O14965 whole entry)": "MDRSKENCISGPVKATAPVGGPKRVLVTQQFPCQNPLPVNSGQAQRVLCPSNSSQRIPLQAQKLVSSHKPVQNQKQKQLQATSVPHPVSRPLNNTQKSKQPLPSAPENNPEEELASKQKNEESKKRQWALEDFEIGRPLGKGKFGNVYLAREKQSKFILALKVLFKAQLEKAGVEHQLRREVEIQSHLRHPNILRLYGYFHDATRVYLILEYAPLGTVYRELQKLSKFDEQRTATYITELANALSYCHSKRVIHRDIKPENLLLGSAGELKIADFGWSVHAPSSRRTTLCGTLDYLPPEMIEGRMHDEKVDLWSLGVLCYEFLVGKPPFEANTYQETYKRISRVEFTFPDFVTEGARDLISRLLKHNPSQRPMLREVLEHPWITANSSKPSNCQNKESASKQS", "format": "functional"}, "[2]": {"target": "Vascular endothelial growth factor receptor 2 (Homo sapiens, UniProt P35968)", "format": "functional"}, "Aurora kinase B": {"target": "Aurora kinase B (Homo sapiens, UniProt Q96GD4)", "format": "functional"}, "[3]": {"target": "Benomyl/methotrexate resistance protein (Candida albicans, UniProt P28873)", "assay": "CaMdr1 efflux pump inhibitor potency, dose response, singleplex, Cherry Pick1 hits (AID 588608)", "format": "functional"}, "[4]": {"target": "Multidrug resistance protein CDR1 (Candida albicans, UniProt P43071)", "sequence (P43071 whole entry, looked up)": "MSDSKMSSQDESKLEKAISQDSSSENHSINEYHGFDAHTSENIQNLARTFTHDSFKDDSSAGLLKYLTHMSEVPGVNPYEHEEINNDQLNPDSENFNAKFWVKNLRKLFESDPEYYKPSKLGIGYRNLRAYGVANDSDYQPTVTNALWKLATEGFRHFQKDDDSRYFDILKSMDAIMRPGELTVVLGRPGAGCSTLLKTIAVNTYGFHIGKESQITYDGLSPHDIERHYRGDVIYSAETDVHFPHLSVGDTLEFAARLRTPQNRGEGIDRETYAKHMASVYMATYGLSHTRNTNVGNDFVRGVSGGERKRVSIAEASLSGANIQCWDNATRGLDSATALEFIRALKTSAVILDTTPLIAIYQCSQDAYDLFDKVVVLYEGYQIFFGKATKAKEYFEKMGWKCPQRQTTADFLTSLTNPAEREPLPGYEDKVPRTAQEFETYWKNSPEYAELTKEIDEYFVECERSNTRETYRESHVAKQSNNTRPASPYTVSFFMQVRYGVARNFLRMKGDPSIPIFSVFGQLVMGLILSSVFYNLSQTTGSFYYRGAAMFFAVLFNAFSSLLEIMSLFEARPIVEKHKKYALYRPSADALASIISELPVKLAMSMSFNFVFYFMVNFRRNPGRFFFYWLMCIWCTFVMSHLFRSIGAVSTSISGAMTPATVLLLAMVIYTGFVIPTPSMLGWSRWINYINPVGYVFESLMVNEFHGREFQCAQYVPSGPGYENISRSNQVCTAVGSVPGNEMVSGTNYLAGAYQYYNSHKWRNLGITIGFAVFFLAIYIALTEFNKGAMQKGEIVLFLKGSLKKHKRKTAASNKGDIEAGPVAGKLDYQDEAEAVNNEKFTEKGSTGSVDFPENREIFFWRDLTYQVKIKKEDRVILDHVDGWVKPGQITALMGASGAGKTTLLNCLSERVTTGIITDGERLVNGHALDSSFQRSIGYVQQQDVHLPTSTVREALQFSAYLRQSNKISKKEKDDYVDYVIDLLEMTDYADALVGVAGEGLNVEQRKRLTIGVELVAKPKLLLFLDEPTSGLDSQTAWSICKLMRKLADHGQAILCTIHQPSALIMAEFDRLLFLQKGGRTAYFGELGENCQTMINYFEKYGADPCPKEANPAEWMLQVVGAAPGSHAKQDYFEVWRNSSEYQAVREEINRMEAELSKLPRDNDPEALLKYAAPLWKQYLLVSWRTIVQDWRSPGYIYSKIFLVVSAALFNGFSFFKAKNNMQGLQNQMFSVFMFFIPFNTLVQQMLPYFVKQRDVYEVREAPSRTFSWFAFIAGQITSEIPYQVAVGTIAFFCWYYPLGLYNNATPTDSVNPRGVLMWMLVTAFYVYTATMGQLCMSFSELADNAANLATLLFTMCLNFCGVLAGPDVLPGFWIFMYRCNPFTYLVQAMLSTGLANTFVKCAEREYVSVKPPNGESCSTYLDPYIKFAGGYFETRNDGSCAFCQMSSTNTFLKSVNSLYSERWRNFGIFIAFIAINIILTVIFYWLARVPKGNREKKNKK", "assay": "CaCDR1 efflux pump inhibitors in yeast, dose response, S. cerevisiae AD1-8u, singleplex, Cherry Pick1 hits (AID 588606)", "format": "functional"}, "Large T antigen": {"target": "Large T antigen (Simian virus 40, UniProt P03070)", "sequence (P03070 whole entry)": "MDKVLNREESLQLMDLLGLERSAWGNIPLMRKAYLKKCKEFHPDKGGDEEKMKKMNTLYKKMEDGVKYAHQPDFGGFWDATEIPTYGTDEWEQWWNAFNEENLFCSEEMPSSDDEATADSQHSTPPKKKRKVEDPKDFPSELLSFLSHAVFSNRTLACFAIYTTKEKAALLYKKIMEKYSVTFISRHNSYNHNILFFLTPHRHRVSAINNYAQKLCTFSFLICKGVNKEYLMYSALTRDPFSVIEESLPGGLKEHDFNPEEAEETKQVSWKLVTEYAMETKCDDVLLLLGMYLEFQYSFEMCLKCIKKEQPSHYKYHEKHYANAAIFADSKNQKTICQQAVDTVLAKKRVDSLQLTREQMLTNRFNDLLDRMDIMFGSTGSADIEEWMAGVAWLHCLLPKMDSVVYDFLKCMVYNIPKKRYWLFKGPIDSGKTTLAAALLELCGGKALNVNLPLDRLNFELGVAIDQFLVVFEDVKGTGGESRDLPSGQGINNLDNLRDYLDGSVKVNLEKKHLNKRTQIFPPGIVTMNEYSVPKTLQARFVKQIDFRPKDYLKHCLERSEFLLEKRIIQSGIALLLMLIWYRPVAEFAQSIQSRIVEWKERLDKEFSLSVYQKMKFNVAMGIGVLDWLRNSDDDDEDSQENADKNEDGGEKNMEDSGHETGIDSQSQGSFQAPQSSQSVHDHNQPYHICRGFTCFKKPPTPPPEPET", "format": "functional, Betapolyomavirus macacae"}, "[5]": {"target": "T1, DNA dC->dU-editing enzyme APOBEC-3A (Homo sapiens, UniProt P31941)", "T1 sequence (P31941 whole entry)": "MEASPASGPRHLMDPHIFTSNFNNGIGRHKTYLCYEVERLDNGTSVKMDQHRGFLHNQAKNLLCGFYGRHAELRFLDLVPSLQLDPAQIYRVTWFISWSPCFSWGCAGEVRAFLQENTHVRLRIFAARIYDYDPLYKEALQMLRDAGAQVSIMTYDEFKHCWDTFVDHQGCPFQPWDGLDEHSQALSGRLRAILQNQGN", "assay": "APOBEC3A DNA deaminase inhibitors, dose response, biochemical (AID 504722)", "format": "functional"}, "[6]": {"target": "T2, DNA dC->dU-editing enzyme APOBEC-3G (Homo sapiens, UniProt Q9HC16)", "T2 sequence (Q9HC16 whole entry)": "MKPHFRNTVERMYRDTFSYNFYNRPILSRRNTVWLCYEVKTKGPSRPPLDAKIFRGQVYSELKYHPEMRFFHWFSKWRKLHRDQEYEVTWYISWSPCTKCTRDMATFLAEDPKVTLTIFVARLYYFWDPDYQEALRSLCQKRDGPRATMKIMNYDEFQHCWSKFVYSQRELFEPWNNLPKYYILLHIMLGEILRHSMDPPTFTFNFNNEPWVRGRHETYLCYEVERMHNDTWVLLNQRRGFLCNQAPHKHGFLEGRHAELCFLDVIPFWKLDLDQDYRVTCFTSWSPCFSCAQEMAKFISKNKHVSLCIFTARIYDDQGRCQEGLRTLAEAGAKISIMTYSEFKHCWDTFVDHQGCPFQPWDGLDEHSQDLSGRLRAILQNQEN", "assay": "Dose Response confirmation of small molecule APOBEC3G DNA Deaminase Inhibitors via a fluorescence-based single-stranded DNA deaminase assay. [Related pubchem assays (depositor defined):AID493012, AID493028]", "format": "functional"}, "[7]": {"target": "T1, DNA dC->dU-editing enzyme APOBEC-3A", "assay": "SAR analysis of small molecule inhibitors of APOBEC3A DNA Deaminase via a fluorescence-based single-stranded DNA deaminase assay - Set 2.", "format": "functional", "conditions": "read-out: IC50_Mean"}, "[8]": {"target": "T2, DNA dC->dU-editing enzyme APOBEC-3G", "assay": "SAR analysis of small molecule inhibitors of APOBEC3G DNA Deaminase via a fluorescence-based single-stranded DNA deaminase assay - Set 2.", "format": "functional", "conditions": "read-out: IC50_Mean"}, "[9]": {"target": "T2, DNA dC->dU-editing enzyme APOBEC-3G", "assay": "APOBEC3G deaminase inhibitors, SAR follow-up, biochemical, fluorescence, single-stranded DNA substrate (AID 602136)", "format": "functional", "conditions": "read-out: IC50_Mean"}, "[10]": {"target": "T1, DNA dC->dU-editing enzyme APOBEC-3A", "assay": "SAR analysis of small molecule inhibitors of APOBEC3A DNA Deaminase via a fluorescence-based single-stranded DNA deaminase assay.", "format": "functional", "conditions": "read-out: IC50_Mean"}, "[11]": {"assay": "inhibitors of cytokine-induced nitrite release, dose response, cell-based, Griess absorbance, INS-1E, dry powder, set 3 (AID 488870)", "format": "functional", "conditions": "Rattus norvegicus"}, "INS1 [12]": {"system": "INS1", "assay": "inhibitors of cytokine-induced nitrite release, dose response, cell-based, Griess absorbance, INS-1E, dry powder (AID 488866)", "format": "functional", "conditions": "Rattus norvegicus"}, "INS1 [13]": {"system": "INS1", "assay": "inhibitors of cytokine-induced nitrite release, dose response, cell-based, Griess absorbance, INS-1E, dry powder, set 2 (AID 488868)", "format": "functional", "conditions": "Rattus norvegicus"}, "[14]": {"assay": "A cell-based HTS for delayed death inhibitors of the malarial parasite plastid Measured in Microorganism System Using Plate Reader - 2126-02_Inhibitor_Dose_DryPowder_Activity.", "format": "functional, organism-based"}, "[15]": {"assay": "A cell-based HTS for delayed death inhibitors of the malarial parasite plastid Measured in Microorganism System Using Plate Reader - 2126-01_Inhibitor_Dose_DryPowder_Activity.", "format": "functional, organism-based"}, "Phospholipase D1": {"target": "Phospholipase D1 (Homo sapiens, UniProt Q13393)", "assay": "PLD1 inhibitor potency in cells, dose response (AID 602151);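 further: cellular PLD1 assay in Calu-1 cells stimulated with PMA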", "format": "functional"}, "Phospholipase D2": {"target": "Phospholipase D2 (Homo sapiens, UniProt O14939)", "sequence (O14939 whole entry)": "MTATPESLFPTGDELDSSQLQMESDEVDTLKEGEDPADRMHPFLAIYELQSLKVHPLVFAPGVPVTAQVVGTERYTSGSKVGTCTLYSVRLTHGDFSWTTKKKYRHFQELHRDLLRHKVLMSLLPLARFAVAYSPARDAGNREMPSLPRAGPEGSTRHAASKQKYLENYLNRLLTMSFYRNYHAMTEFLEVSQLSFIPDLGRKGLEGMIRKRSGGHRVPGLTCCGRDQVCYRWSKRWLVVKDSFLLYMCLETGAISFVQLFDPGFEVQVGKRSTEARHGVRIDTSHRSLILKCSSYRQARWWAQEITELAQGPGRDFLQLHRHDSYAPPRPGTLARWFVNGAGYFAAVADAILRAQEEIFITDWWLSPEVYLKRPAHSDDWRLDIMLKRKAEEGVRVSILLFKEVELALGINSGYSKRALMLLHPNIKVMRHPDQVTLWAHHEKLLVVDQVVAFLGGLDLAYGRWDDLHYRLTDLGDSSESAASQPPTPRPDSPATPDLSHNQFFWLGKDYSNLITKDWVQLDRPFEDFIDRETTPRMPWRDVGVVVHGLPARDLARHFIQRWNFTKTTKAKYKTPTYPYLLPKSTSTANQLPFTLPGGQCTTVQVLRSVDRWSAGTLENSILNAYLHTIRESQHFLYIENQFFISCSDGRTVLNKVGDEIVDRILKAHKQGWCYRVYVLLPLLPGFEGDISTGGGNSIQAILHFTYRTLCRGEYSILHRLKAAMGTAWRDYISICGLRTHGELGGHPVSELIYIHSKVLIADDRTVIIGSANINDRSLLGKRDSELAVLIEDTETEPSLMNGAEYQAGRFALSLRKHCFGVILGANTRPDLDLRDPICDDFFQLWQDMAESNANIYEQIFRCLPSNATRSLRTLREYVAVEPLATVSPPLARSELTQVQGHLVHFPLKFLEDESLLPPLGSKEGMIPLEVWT", "assay": "PLD2 inhibitor potency in cells, dose response (AID 602147);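 further: cellular assay in HEK293 cells overexpressing GFP-tagged PLD2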", "format": "functional"}, "[16]": {"target": "Latent membrane protein 1 (Human herpesvirus 4 (strain B95-8), UniProt P03230)", "sequence (P03230 whole entry)": "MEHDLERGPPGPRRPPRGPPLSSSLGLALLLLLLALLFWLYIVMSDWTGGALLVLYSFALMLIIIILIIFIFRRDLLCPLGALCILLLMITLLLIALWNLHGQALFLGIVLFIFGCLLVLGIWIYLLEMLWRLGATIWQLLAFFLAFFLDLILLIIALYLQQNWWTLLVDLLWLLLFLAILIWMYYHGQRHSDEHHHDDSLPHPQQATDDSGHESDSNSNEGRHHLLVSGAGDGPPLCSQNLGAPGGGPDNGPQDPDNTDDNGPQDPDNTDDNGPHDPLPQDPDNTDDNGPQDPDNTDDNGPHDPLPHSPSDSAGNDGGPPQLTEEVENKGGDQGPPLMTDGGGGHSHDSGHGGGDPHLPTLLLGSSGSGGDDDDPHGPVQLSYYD", "assay": "TES1-eGFP NF-kB reporter inhibition versus Tet-On dsRED, dose response, selectivity assay for LMP1 NF-kB inhibitor project, imaging, HEK293T, dual-color eGFP/dsRED, cherry-picks (AID 588398)", "format": "functional, cell-based"}}, "note": "The source made the active and inactive calls.", "data": [{"smiles": "Cc1c(O)ccc2c(CC(=O)N[C@@H](Cc3c[nH]c4ccccc34)C(=O)O)cc(=O)oc12", "values": [{"measurement": "AC50", "setting": "[1]", "value": "6.76 µM (active)"}]}, {"smiles": "COc1cc(-c2ccc3c(c2)Nc2cc(OCCCCO)c(OC)cc2NC3=O)ccc1O", "values": [{"measurement": "Ki", "setting": "Aurora kinase A", "value": "1.26 µM (active)"}, {"measurement": "Ki", "setting": "[2]", "value": "3.98 µM (active)"}, {"measurement": "Ki", "setting": "Aurora kinase B", "value": "1.58 µM (active)"}]}, {"smiles": "Cc1ccc(S(=O)(=O)N2CCOCC2)cc1NC(=O)COC(=O)CNC(=O)c1ccccc1", "values": [{"measurement": "EC50", "setting": "[3]", "value": "0.065 µM (active)"}, {"measurement": "EC50", "setting": "[4]", "value": "0.018 µM (active)"}]}, {"smiles": "CCCCCn1c(=O)c2ccccc2n2c(S)nnc12", "values": [{"measurement": "IC50", "setting": "Large T antigen", "value": "16.8 µM (active)"}, {"measurement": "IC50", "setting": "[5]", "value": "> 100 µM (inactive)"}, {"measurement": "IC50", "setting": "[6]", "value": "1.47 µM (active)"}, {"measurement": "IC50", "setting": "[7]", "value": "> 99 µM (inactive)"}, {"measurement": "IC50", "setting": "[8]", "value": "1.6 µM (active)"}, {"measurement": "IC50", "setting": "[9]", "value": "1.2 µM (active)"}, {"measurement": "IC50", "setting": "[10]", "value": "> 99 µM (inactive)"}]}, {"smiles": "C[C@@H]1CN([C@@H](C)CO)C(=O)c2cccc(NC(=O)Nc3cccc4ccccc34)c2O[C@H]1CN(C)S(=O)(=O)c1cccc(F)c1", "values": [{"measurement": "AC50", "setting": "[11]", "value": "22.9 µM (active)"}, {"measurement": "AC50", "setting": "INS1 [12]", "value": "32.1 µM (active)"}, {"measurement": "AC50", "setting": "INS1 [13]", "value": "29.6 µM (active)"}]}, {"smiles": "C[C@@H]1CN([C@@H](C)CO)C(=O)c2cc(NC(=O)Nc3ccccc3)ccc2O[C@@H](C)CCCCO[C@H]1CN(C)C(=O)OC(C)(C)C", "values": [{"measurement": "AC50", "setting": "[14]", "value": "1.37 µM (active)"}, {"measurement": "AC50", "setting": "[15]", "value": "2.41 µM (active)"}]}, {"smiles": "C[C@@H](CN1CCC(n2c(=O)[nH]c3ccccc32)CC1)NC(=O)CCc1ccc(F)cc1", "values": [{"measurement": "IC50", "setting": "Phospholipase D1", "value": "0.26 µM (active)"}, {"measurement": "IC50", "setting": "Phospholipase D2", "value": "9 µM (active)"}]}, {"smiles": "Cc1ccc(/C=N/NC(=O)c2cc(-c3ccccc3)nc3ccccc23)o1", "values": [{"measurement": "AC50", "setting": "[16]", "value": "27.2 µM (active)"}]}]}
